Source: patent publication US20070092576A1, “Compositions containing opioid antagonists” (Adolor Corporation, priority 2005, published 2007)

How the values were obtained:
analgesia = experiment: Propensity for reversing analgesia after oral administration; format: in vivo; settings: administered orally; compared with alvimopan
[1] = Solubility of the drug substance; format: physicochemical; settings: for solubility in water: dihydrate

Row | solubility in water [1] | Structure (SMILES) | propensity for reversing analgesia (analgesia) | solubility as a function of pH ([1]; acid pH versus basic pH) | solubility in water ([1]; listed as compound of formula (II))
1 |  | C[C@H]1CN(C[C@H](Cc2ccccc2)C(=O)O)CC[C@@]1(C)c1cccc(O)c1 [(3R, 4R, S)-Q-CH2CH(CH2(C6H5))C(O)OH, (αS,3R,4R)-4-(3-hydroxyphenyl)-3,4-dimethyl-α-(phenylmethyl)-1-piperidinepropanoic acid monohydrate] | much greater propensity for undesirably reversing analgesia than alvimopan |  | 
2 | extremely low solubility in water | C[C@H]1CN(C[C@H](Cc2ccccc2)C(=O)NCC(=O)O)CC[C@@]1(C)c1cccc(O)c1 [Alvimopan, [[2(S)-[[4(R)-(3-hydroxyphenyl)-3(R),4-dimethyl-1-piperidinyl]methyl]-1-oxo-3-phenylpropyl]amino]acetic acid dihydrate] |  | more soluble at an acid pH than a basic pH | low solubility in water except at low or high pH conditions
